Assay results from patent publication US9533961B2, “Molecules having certain pesticidal utilities, and intermediates, compositions, and processes related thereto” (priority 2014, dated 2017).
Like-named read-outs stand apart in the source and are kept apart here.

Legend:
Format in all cases: in vivo
[1] = system: Beet Armyworm (Spodoptera exigua, LAPHEG) ("BAW"); assay: Bioassay on Beet Armyworm (BAW), 128-well diet tray assay; details: 168 h, read-out: BAW % Control (or Mortality) rating
Protocol: (§1) Certain molecules disclosed in this document were tested against BAW and CEW using procedures described in the following examples. In the reporting of the results, the “BAW & CL Rating Table” was used (See Table Section).
Bioassays on BAW were conducted using a 128-well diet tray assay. one to five second instar BAW larvae were placed in each well (3 mL) of the diet tray that had been previously filled with 1 mL of artificial diet to which 50 μg/cm^2 of the test compound (dissolved in 50 μL of 90:10 acetone-water mixture) had been applied (to each of eight wells) and then allowed to dry. Trays were covered with a clear self-adhesive cover and held at 25° C., 14:10 light-dark for five to seven days. Percent mortality was recorded for the larvae in each well; activity in the eight wells was then averaged. The results are indicated in the table entitled “Table ABC: Biological Results” (See Table Section).

[2] = system: Cabbage Looper (Trichoplusia ni, TRIPNI) ("CL"); assay: Bioassay on Cabbage Looper (CL), 128-well diet tray assay; details: 168 h, read-out: CL % Control (or Mortality) rating
Protocol: as §1
Bioassays on CL were conducted using a 128-well diet tray assay. one to five second instar CL larvae were placed in each well (3 mL) of the diet tray that had been previously filled with 1 mL of artificial diet to which 50 μg/cm^2 of the test compound (dissolved in 50 μL of 90:10 acetone-water mixture) had been applied (to each of eight wells) and then allowed to dry. Trays were covered with a clear self-adhesive cover and held at 25° C., 14:10 light-dark for five to seven days. Percent mortality was recorded for the larvae in each well; activity in the eight wells was then averaged. The results are indicated in the table entitled “Table ABC: Biological Results” (See Table Section).

[3] = system: Green Peach Aphid (Myzus persicae, MYZUPE) ("GPA"); assay: Bioassay on Green Peach Aphid (GPA), foliar spray on cabbage seedlings; details: 72 h, read-out: GPA % Control (or Mortality) rating
Protocol: Certain molecules disclosed in this document were tested against GPA using procedures described in the following example. In the reporting of the results, the “GPA Rating Table” was used (See Table Section).
Cabbage seedlings grown in 3-inch pots, with 2-3 small (3-5 cm) true leaves, were used as test substrate. The seedlings were infested with 20-50 GPA (wingless adult and nymph stages) one day prior to chemical application. Four pots with individual seedlings were used for each treatment. Test compounds (2 mg) were dissolved in 2 mL of acetone/methanol (1:1) solvent, forming stock solutions of 1000 ppm test compound. The stock solutions were diluted 5× with 0.025% Tween 20 in water to obtain the solution at 200 ppm test compound. A hand-held aspirator-type sprayer was used for spraying a solution to both sides of […] leaves until runoff. Reference plants (solvent check) were sprayed with the diluent only containing 20% by volume of acetone/methanol (1:1) solvent. Treated plants were held in a holding room for three days at approximately 25° C. and ambient relative humidity (RH) prior to grading. Evaluation was conducted by counting the number of live aphids per plant under a microscope. Percent Control was measured by using Abbott's correction formula (W. S. Abbott, “A Method of Computing the Effectiveness of an Insecticide” J. Econ. Entomol. 18 (1925), pp. 265-267) as follows. Corrected % Control=100*(X−Y)/X • where • X=No. of live aphids on solvent check plants and • Y=No. of live aphids on treated plants

[4] = system: Yellow Fever Mosquito (Aedes aegypti, AEDSAE) ("YFM"); assay: Bioassay on Yellow Fever Mosquito (YFM), 96-well plate larval assay; details: about 1 day-old larvae, from 4000 ppm master plate, scored on mortality after 3 days
Protocol: Certain molecules disclosed in this document were tested against YFM using procedures described in the following paragraph. In the reporting of the results, the “YFM Rating Table” was used (See Table Section).
Master plates containing 400 μg of a molecule dissolved in 100 μL of dimethyl sulfoxide (DMSO) (equivalent to a 4000 ppm solution) are used. A master plate of assembled molecules contains 15 μL per well. To this plate, 135 μL of a 90:10 water:acetone mixture is added to each well. A robot (Biomek® NXP Laboratory Automation Workstation) is programmed to dispense 15 μL aspirations from the master plate into an empty 96-well shallow plate (“daughter” plate). There are 6 reps (“daughter” plates) created per master. The created daughter plates are then immediately infested with YFM larvae.
The day before plates are to be treated, mosquito eggs are placed in Millipore water containing liver powder to begin hatching (4 g. into 400 mL). After the daughter plates are created using the robot, they are infested with 220 μL of the liver powder/larval mosquito mixture (about 1 day-old larvae). After plates are infested with mosquito larvae, a non-evaporative lid is used to cover the plate to reduce drying. Plates are held at room temperature for 3 days prior to grading. After 3 days, each well is observed and scored based on mortality.

[5] = 50 μg/cm^2 on artificial diet, second instar larvae, five to seven days, 25° C., average of eight wells
[6] = 200 ppm foliar spray on cabbage seedlings, three days, Abbott corrected % control

Row | SMILES | mortality at 50 µg/cm2 [1, 5] | mortality at 50 µg/cm2 [2] | mortality at 200 ppm [3, 6] | YFM % Control (or Mortality) rating [4] | mortality at 50 µg/cm2 [1] | mortality at 200 ppm ([3]; foliar)
1 | O=C(Nc1ccc(-c2ncn(-c3ccc(OC(F)(F)F)cc3)n2)cc1)c1ccccc1Nc1ccccc1 [F7, 2-(phenylamino)-N-(4-(1-(4-(trifluoromethoxy)phenyl)-1H-1,2,4-triazol-3-yl)phenyl)benzamide] | 50 to 100% | 50 to 100% | 0 to 80% | A (80-100) |  | 
2 | Cc1cccc(C)c1Nc1ccccc1C(=O)Nc1ccc(-c2ncn(-c3ccc(OC(F)(F)F)cc3)n2)cc1 [F1, 2-((2,6-dimethylphenyl)amino)-N-(4-(1-(4-(trifluoromethoxy)phenyl)-1H-1,2,4-triazol-3-yl)phenyl)benzamide] | 0% | 0% | 0 to 80% |  |  | 
3 | Cc1cccc(C)c1Nc1ccccc1C(=O)Nc1ccc(-c2ncn(-c3ccc(C(F)(F)F)cc3)n2)cc1 [F2, 2-((2,6-Dimethylphenyl)amino)-N-(4-(1-(4-(trifluoromethyl)phenyl)-1H-1,2,4-triazol-3-yl)phenyl)benzamide] |  | 0% |  |  | 0% | 0 to 80%
4 | O=C(Nc1ccc(-c2ncn(-c3ccc(OC(F)(F)F)cc3)n2)cc1)c1cccc(COCC(F)(F)C(F)F)c1 [F20, 3-((2,2,3,3-Tetrafluoropropoxy)methyl)-N-(4-(1-(4-(trifluoromethoxy)phenyl)-1H-1,2,4-triazol-3-yl)phenyl)benzamide] | 0% | 0% |  | B (More than 0 - Less than 80) |  | 
5 | COc1ccc(-c2ccccc2C(=O)NCc2ccc(-c3ncn(-c4ccc(OC(F)(F)F)cc4)n3)cc2)c(C)c1 [F38, 4′-Methoxy-2′-methyl-N-(4-(1-(4-(trifluoromethoxy)phenyl)-1H-1,2,4-triazol-3-yl)benzyl)biphenyl-2-carboxamide] | 0% | 0% |  | D (No activity noticed in this bioassay) |  | 
6 | COc1ccc(C(=O)Nc2ccc(-c3ncn(-c4ccc(OC(F)(F)F)cc4)n3)cc2)cc1 [F26, 4-Methoxy-N-(4-(1-(4-(trifluoromethoxy)phenyl)-1H-1,2,4-triazol-3-yl)phenyl)benzamide] | 50 to 100% | 50 to 100% |  | D (No activity noticed in this bioassay) |  | 
7 | Cc1ccc(C(=O)NCc2ccc(-c3ncn(-c4ccc(OC(F)(F)F)cc4)n3)cc2)c(C)c1 [F29, 2,4-Dimethyl-N-(4-(1-(4-(trifluoromethoxy)phenyl)-1H-1,2,4-triazol-3-yl)benzyl)benzamide] | 0% | 0% |  | D (No activity noticed in this bioassay) |  | 
8 | Cc1ccc(C(C)C)c(C(=O)NCc2ccc(-c3ncn(-c4ccc(OC(F)(F)F)cc4)n3)cc2)c1 [F39, 2-Isopropyl-5-methyl-N-(4-(1-(4-(trifluoromethoxy)phenyl)-1H-1,2,4-triazol-3-yl)benzyl)benzamide] | 0% | 0% |  | D (No activity noticed in this bioassay) |  | 
9 | COc1ccccc1C(=O)Nc1ccc(-c2ncn(-c3ccc(OC(F)(F)C(F)(F)F)cc3)n2)cc1 [F12, 2-Methoxy-N-(4-(1-(4-(perfluoroethoxy)phenyl)-1H-1,2,4-triazol-3-yl)phenyl)benzamide] | 0% | 50 to 100% |  | D (No activity noticed in this bioassay) |  | 
10 | O=C(Nc1ccc(-c2ncn(-c3ccc(OC(F)(F)C(F)(F)F)cc3)n2)cc1)c1cccc(Oc2ccccc2)c1 [F9, N-(4-(1-(4-(perfluoroethoxy)phenyl)-1H-1,2,4-triazol-3-yl)phenyl)-3-phenoxybenzamide] | 0% | 0% |  | D (No activity noticed in this bioassay) |  | 
11 | COc1cccc(C(=O)Nc2ccc(-c3ncn(-c4ccc(OC(F)(F)F)cc4)n3)cc2)c1 [F13, 3-Methoxy-N-(4-(1-(4-(trifluoromethoxy)phenyl)-1H-1,2,4-triazol-3-yl)phenyl)benzamide] | 50 to 100% | 50 to 100% |  | B (More than 0 - Less than 80) |  | 
12 | COc1ccccc1C(=O)Nc1ccc(-c2ncn(-c3ccc(OC(F)(F)F)cc3)n2)cc1 [F11, 2-Methoxy-N-(4-(1-(4-(trifluoromethoxy)phenyl)-1H-1,2,4-triazol-3-yl)phenyl)benzamide] | 50 to 100% | 0% |  | D (No activity noticed in this bioassay) |  | 
13 | Cc1ccc(-c2ccccc2C(=O)NCc2ccc(-c3ncn(-c4ccc(OC(F)(F)F)cc4)n3)cc2)c(C)c1 [F33, 2′,4′-Dimethyl-N-(4-(1-(4-(trifluoromethoxy)phenyl)-1H-1,2,4-triazol-3-yl)benzyl)biphenyl-2-carboxamide] | 0 to 50% | 50 to 100% |  | A (80-100) |  | 
14 | O=C(Nc1ccc(-c2ncn(-c3ccc(OC(F)(F)F)cc3)n2)cc1)c1ccc(Oc2ccccc2)cc1 [F6, 4-Phenoxy-N-(4-(1-(4-(trifluoromethoxy)phenyl)-1H-1,2,4-triazol-3-yl)phenyl)benzamide] | 50 to 100% | 50 to 100% |  | D (No activity noticed in this bioassay) |  | 
15 | O=C(Nc1ccc(-c2ncn(-c3ccc(OC(F)(F)F)cc3)n2)cc1)c1cccc(Oc2ccccc2)c1 [F5, 3-Phenoxy-N-(4-(1-(4-(trifluoromethoxy)phenyl)-1H-1,2,4-triazol-3-yl)phenyl)benzamide] | 0% | 50 to 100% |  | D (No activity noticed in this bioassay) |  | 
16 | O=C(Nc1ccc(-c2ncn(-c3ccc(OC(F)(F)F)cc3)n2)cc1)c1ccccc1Oc1ccccc1 [F4, 2-Phenoxy-N-(4-(1-(4-(trifluoromethoxy)phenyl)-1H-1,2,4-triazol-3-yl)phenyl)benzamide] | 50 to 100% | 50 to 100% |  | D (No activity noticed in this bioassay) |  | 
17 | CC(C)c1cccc(C(=O)NCc2ccc(-c3ncn(-c4ccc(OC(F)(F)F)cc4)n3)cc2)c1 [F28, 3-Isopropyl-N-(4-(1-(4-(trifluoromethoxy)phenyl)-1H-1,2,4-triazol-3-yl)benzyl)benzamide] | 50 to 100% | 0% |  | D (No activity noticed in this bioassay) |  | 
18 | O=C(NCc1ccc(-c2ncn(-c3ccc(OC(F)(F)F)cc3)n2)cc1)c1ccccc1-c1ccccc1 [F27, N-(4-(1-(4-(Trifluoromethoxy)phenyl)-1H-1,2,4-triazol-3-yl)benzyl)biphenyl-2-carboxamide] | 0 to 50% | 50 to 100% |  | B (More than 0 - Less than 80) |  | 
